Columns and labels:
MDA-MB-231(R) cells = experiment: MTT cytotoxicity of DOX on MDA-MB-231 versus MDA-MB-231(R); assay type: cell-based, human; details: 48-hour DOX treatment, each dose level
Description: Doxorubicin resistant cell lines of MDA-MB-231 and MCF-7 were developed in house. The resistant variants were generated by repeatedly culturing MDA-MB-231 and MCF-7 cells in the presence of 0.2 μmol/L DOX. These cells that proliferated well in the presence of doxorubicin after several passages qualified as DOX-resistant MDA-MB-231 and MCF-7 cells, which were named as MDA-MB-231(R) and MCF-7(R) cell lines, respectively. Both MDA-MB-231(R) and MCF-7(R) cell lines were characterized against non-DOX treated MDA-MB-231 and MCF-7 cell lines.
The cell seeded plate was incubated for 24 hours at 37° C. and 5% CO2 in a standard cell culture incubator before drug treatment. […] After another 24 hours of incubation, cell viability was assessed by the MTT assay following the manufacture's protocols. Relative percent survival was determined by subtracting absorbance values obtained by media-only wells from drug treated wells and then normalizing to the no-drug control wells (cell only control). The fraction of cells affected (Fa), or cell growth inhibition (%) at each drug concentration was subsequently calculated for each well. The effect of drug combinations was then calculated and processed by a software CompuSyn for drug synergy analysis. The program employs the median-effect analysis algorithm, which produces the Combination Index (CI) value as a quantitative indicator of the degree of synergy. […]

[1] = In-vivo pharmacokinetic study, intravenous; details: free drug solution, CD-1 mice
Description: After intravenous administration, blood was collected at multiple time points for a week by cardiac puncture (3 mice per time point) and placed into EDTA coated micro containers. The samples were centrifuged to separate plasma, and plasma was transferred to another tube.

Structure (SMILES): COc1cccc2c1C(=O)c1c(O)c3c(c(O)c1C2=O)C[C@@](O)(C(=O)CO)C[C@@H]3O[C@H]1C[C@H](N)[C@H](O)[C@H](C)O1.Cl [DOX, Doxorubicin hydrochloride]
- cell viability of MDA-MB-231(R) compared to MDA-MB-231 (MDA-MB-231(R) cells): markedly greater
- half-life (T1/2) [1]: 30 min

From patent US12691065B2, “Liposome formulations for treatment of cancers and drug resistance of cancers” (NanoTech Pharma Inc., priority 2020, dated 2026)
